Literature values, collected in patent US8412321B2, “Method of identifying strategies for treatment or prevention of ventricular fibrillation and ventricular tachycardia” (Cornell Research Foundation, Inc., priority 2004, dated 2013).

Test system: arterially perfused canine ventricle

Compound: COc1ccc(CCN(C)CCCC(C#N)(c2ccc(OC)c(OC)c2)C(C)C)cc1OC (stereo not drawn) [verapamil]
- slope of the APD restitution relation (after exposure to verapamil, FIG. 14A): reduction in the slope of the APD restitution relation
- magnitude of APD alternans (AM) (pacing at different basic cycle lengths, FIG. 14B): reduction in the magnitude of APD alternans
- composite FFT of MAP recordings during VF (verapamil added after 35 min of VF, FIG. 14C): converted the broad FFT spectra during VF to a single frequency
